For the test, the target named is T1, Hbt2 (Hbt2p) (Lodderomyces parapsilosis, UniProt G8BG57).
T1 construct: native untagged full-length transporter in wild-type cells; assigned by knockout of HBT2
The test can be described thus: […]-substrate uptake, wild-type versus hbt2 knockout cells. Format: cell-based. The settings on record: 50 µM, 50 mM Tris-HCl pH 7.5, 28 °C, labelled compound.

Results on two molecules are retold here after article PMC5566891, “Eukaryotic transporters for hydroxyderivatives of benzoic acid” (Scientific Reports, 2017).

Molecules are shown by their SMILES.

T1 sequence (G8BG57 entry or part of it): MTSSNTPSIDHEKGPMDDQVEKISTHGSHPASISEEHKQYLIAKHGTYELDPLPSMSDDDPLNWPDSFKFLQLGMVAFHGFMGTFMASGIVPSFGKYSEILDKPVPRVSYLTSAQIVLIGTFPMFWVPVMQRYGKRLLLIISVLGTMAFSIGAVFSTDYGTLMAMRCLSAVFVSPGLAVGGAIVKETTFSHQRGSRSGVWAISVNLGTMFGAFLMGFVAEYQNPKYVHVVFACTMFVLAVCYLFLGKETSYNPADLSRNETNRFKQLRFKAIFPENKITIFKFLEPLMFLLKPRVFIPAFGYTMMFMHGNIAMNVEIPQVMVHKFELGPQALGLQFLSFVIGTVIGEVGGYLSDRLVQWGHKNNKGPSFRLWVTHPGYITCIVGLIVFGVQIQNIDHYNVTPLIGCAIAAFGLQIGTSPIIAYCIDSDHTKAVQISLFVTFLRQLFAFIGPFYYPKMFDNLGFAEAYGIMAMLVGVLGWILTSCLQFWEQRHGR

For `O=C(O)c1ccc(O)c(O)c1` [protocatechuate], the “14C-substrate uptake, wild-type versus hbt2 knockout cells” value (cells grown on hydroquinone) was “uptake of both substrates is impaired in the ∆hbt2/∆hbt2 mutant”.

As for `O=C(O)c1ccc(O)cc1` [4-hydroxybenzoate], under “cells grown on 4-hydroxybenzoate or hydroquinone”, the “14C-substrate uptake, wild-type versus hbt2 knockout cells” value is “uptake of both substrates is impaired in the ∆hbt2/∆hbt2 mutant”.
